Experimental findings from US20200239530A1, “COMPOUNDS AND METHODS OF MODULATING PROTEIN DEGRADATION” (Vividion Therapeutics, Inc., priority 2017, published 2020) are described below.

Holding throughout (experiment): Cysteine liganding, probe competition
What all share (format): binding

Test [1] deals with T1, RNF20 E3 ubiquitin-protein ligase BRE1A (Homo sapiens, UniProt Q5VTR2).
T1 construct: Cells were resuspended in cold PBS on ice and sonicated with a probe sonicator to achieve lysis; endogenous in cells
T1 sequence (Q5VTR2 whole entry): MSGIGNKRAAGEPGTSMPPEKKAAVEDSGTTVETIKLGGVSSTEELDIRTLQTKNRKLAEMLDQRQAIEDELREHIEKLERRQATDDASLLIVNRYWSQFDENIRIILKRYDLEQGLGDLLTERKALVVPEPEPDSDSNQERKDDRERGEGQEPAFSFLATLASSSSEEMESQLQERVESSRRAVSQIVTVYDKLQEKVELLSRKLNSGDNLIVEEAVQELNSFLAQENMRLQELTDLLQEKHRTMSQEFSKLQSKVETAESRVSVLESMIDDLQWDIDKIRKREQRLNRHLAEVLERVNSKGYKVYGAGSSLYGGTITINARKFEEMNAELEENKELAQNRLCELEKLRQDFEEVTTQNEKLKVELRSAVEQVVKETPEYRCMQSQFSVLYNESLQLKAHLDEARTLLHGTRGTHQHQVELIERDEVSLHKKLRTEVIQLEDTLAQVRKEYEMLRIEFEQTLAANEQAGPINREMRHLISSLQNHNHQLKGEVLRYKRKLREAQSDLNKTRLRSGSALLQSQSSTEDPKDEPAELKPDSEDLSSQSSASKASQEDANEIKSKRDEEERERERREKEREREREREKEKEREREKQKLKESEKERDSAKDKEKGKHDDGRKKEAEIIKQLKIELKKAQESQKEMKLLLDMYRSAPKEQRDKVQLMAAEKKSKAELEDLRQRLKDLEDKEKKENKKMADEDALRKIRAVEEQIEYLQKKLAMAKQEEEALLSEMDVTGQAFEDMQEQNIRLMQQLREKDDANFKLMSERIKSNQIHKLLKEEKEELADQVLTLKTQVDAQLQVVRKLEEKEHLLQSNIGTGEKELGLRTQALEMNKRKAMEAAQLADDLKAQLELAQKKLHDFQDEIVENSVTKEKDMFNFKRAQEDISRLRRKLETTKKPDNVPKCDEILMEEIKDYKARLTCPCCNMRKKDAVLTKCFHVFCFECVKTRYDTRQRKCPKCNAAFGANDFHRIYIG
The procedure, abridged:
(§1)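 Lysates from probe-sonicated cells in PBS (5 mg/ml proteome) were exposed to compound for 1 hr at 25° C, then labelled with desthiobiotin iodoacetamide probe (10 mM stock) for 1 hr at 25° C. Probe-tagged peptides were streptavidin-enriched after trypsin digestion.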

Test [2] deals with T2, ZNF318 Zinc finger protein 318 (Homo sapiens, UniProt Q5VUA4).
T2 construct: Cells were resuspended in cold PBS on ice and sonicated with a probe sonicator to achieve lysis; endogenous in cells
T2 sequence (Q5VUA4 whole entry): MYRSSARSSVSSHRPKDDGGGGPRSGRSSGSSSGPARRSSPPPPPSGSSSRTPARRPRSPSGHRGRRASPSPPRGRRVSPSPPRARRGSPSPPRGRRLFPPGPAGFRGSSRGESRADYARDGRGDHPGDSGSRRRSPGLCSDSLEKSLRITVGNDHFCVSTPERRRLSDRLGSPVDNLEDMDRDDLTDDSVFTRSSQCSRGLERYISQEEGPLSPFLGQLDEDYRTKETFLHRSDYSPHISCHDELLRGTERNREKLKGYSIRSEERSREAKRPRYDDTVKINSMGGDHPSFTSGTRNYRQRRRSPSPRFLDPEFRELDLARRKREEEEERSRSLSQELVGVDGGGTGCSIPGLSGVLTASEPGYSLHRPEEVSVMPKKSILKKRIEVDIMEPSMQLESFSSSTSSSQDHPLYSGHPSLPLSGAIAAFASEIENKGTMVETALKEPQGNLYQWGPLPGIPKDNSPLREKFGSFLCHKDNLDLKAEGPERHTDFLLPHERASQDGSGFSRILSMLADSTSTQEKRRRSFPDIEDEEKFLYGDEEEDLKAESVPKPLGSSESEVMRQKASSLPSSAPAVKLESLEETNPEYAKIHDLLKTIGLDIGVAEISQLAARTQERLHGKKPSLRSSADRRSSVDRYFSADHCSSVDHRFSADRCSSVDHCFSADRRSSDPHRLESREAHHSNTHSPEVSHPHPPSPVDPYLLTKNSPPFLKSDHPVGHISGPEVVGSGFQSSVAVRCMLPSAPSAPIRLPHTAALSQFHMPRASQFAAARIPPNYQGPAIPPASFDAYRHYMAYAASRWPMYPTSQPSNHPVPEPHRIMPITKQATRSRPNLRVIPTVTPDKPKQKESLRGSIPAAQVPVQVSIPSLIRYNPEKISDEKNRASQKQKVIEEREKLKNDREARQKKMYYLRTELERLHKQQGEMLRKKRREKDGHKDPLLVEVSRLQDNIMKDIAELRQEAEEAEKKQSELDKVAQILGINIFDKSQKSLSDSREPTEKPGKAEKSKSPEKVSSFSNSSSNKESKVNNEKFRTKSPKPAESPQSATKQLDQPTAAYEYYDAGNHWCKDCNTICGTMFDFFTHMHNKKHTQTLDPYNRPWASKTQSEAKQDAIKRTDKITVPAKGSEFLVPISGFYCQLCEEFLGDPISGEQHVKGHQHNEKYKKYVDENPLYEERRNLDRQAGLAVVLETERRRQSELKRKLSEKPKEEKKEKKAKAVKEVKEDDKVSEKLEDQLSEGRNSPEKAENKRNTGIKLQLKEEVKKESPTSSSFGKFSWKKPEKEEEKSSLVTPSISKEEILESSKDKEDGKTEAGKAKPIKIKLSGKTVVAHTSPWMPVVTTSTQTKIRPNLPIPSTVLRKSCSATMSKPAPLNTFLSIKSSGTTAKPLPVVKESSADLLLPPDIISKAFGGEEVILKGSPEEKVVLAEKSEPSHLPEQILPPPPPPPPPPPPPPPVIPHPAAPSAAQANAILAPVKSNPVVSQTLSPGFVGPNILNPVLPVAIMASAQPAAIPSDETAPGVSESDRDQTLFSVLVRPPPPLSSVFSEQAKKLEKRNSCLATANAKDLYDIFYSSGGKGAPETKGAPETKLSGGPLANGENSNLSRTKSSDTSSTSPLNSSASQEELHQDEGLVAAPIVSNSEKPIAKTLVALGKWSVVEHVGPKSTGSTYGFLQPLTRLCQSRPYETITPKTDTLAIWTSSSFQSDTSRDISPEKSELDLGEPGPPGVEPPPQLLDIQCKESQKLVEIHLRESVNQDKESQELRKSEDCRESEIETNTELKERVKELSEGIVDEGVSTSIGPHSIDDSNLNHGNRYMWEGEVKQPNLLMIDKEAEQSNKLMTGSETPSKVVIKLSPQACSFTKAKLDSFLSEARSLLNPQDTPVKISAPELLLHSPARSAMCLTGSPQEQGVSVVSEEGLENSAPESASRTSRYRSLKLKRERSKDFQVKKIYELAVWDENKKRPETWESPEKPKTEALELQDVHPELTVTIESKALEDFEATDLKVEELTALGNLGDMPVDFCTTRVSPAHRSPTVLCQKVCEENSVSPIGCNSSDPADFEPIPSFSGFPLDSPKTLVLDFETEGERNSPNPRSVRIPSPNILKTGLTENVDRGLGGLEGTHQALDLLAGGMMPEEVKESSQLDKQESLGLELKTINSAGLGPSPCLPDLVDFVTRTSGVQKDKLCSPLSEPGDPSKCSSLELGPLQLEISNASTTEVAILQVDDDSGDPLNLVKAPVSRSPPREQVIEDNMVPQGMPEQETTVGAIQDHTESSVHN
In short, it runs like this: as §1

Test [3] deals with T3, UNC93B1 Protein unc-93 homolog B1 (Homo sapiens, UniProt Q9H1C4).
T3 construct: Cells were resuspended in cold PBS on ice and sonicated with a probe sonicator to achieve lysis; endogenous in cells
T3 sequence (Q9H1C4 1-597): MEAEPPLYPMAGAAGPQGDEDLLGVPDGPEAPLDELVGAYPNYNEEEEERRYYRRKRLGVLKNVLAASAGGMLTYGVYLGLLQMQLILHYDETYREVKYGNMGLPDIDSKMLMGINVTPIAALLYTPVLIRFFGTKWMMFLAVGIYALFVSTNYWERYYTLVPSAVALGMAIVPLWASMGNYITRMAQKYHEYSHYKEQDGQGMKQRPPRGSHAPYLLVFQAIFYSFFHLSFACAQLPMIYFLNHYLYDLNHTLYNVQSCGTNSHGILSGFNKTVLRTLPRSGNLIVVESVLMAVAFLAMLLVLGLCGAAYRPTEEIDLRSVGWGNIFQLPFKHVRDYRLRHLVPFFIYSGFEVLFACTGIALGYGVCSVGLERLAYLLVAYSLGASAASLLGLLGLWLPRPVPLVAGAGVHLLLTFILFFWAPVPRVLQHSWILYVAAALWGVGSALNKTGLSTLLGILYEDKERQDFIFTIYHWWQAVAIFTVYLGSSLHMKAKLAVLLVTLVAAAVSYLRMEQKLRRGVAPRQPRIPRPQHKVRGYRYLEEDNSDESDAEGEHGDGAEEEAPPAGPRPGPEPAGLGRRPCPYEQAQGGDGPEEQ
In short, it runs like this:
as §1

Consider `O=C(CCl)Nc1cc(C(F)(F)F)cc(C(F)(F)F)c1` [KBO3], for which the “100 Max” value is 11.0 in test [1] (uniprot Q5VTR2), −1.63 in test [2] (uniprot Q5VUA4) and 29.9385 in test [3] (uniprot Q9H1C4). Further, the 100 ave was 0.6 in test [1] (uniprot Q5VTR2), −8.115 in test [2] (uniprot Q5VUA4) and 13 in test [3] (uniprot Q9H1C4). Moreover, the “500 Max” value is 37.3 in test [1] (uniprot Q5VTR2); 55.07 in test [2] (uniprot Q5VUA4); 72.3195 in test [3] (uniprot Q9H1C4, in % (unit assumed)). Also, the figures for the 500 ave in test [1] (uniprot Q5VTR2), in test [2] (uniprot Q5VUA4) and in test [3] (uniprot Q9H1C4) were 32.6, 40.555 and 70.38, respectively.
For `COc1ccc2c(c1)CCCN2C(=O)CCl` [KB02], the Liganded entry is listed as “YES” in test [1] (RNF20 Res# 383, uniprot Q5VTR2); “YES” in test [2] (ZNF318 Res# 1681, uniprot Q5VUA4); “YES” in test [3] (UNC93B1 Res# 583, uniprot Q9H1C4).
